Laboratory results from ChEMBL document CHEMBL1147930, “Selective inhibition of the interaction of C1q with immunoglobulins and the classical pathway of complement activation by steroids and triterpenoids sulfates” (Bioorg Med Chem, 2007).
Counter-ions that a name gives are not always drawn.

How the values were obtained:
[1] = Toxicity in sheep erythrocytes assessed as intrinsic hemolytic activity; format: cell-based, Ovis aries, Erythrocyte; details: read-out: ED50 (the source's name)
[2] = Inhibition of classical pathway of complement activation in sheep erythrocytes in presence of guinea-pig serum; format: functional, cell-based, Ovis aries; details: erythrocyte
[3] = Inhibition of C1q immunoglobulin interaction by ELISA; set-up: species or system Homo sapiens
[4] = Inhibition of classical pathway of complement activation in sheep erythrocytes in presence of human serum; format: functional, cell-based, Ovis aries; details: erythrocyte
[5] = Inhibition of alternative pathway of complement activation in rabbit erythrocytes in presence of human serum; format: functional, cell-based, Oryctolagus cuniculus; details: erythrocyte
[6] = Inhibition of C1q immunoglobulin interaction by hemolytic method; set-up: species or system Homo sapiens

Compound | IC50 [2] [µM] | HC50 [1] [µM] | Ki [3] [µM] | IC50 [4] [µM] | IC50 [5] [µM] | Ki [6] [µM]
CC1(C)CC[C@]2(C(=O)O)CC[C@]3(C)C(=CCC4[C@@]5(C)CC[C@H](OS(=O)(=O)O)C(C)(C)[C@@H]5CC[C@]43C)[C@@H]2C1 (some centres not stated) [OLEANOLIC ACID SULFATE] |  | 15 |  |  |  | 
C=C(C)[C@@H]1CC[C@]2(COP(=O)(O)O)CC[C@]3(C)[C@H](CC[C@@H]4[C@@]5(C)CC[C@H](OP(=O)(O)O)C(C)(C)[C@@H]5CC[C@]43C)[C@@H]12 [BETULIN DIPHOSPHATE] | 42.6 | > 800 |  |  |  | 
C[C@H](CCC(=O)O)[C@H]1CC[C@H]2[C@@H]3CC=C4C[C@@H](OS(=O)(=O)O)CC[C@]4(C)[C@H]3CC[C@]12C | 23.7 | > 400 |  |  |  | 
C[C@H](CCC(=O)O)[C@H]1CC[C@H]2[C@@H]3[C@H](OS(=O)(=O)O)C[C@@H]4C[C@H](OS(=O)(=O)O)CC[C@]4(C)[C@H]3C[C@H](OS(=O)(=O)O)[C@]12C [CHOLIC ACID TRISULFATE] | 101 | > 1400 |  |  |  | 
C=C(C)[C@@H]1CC[C@]2(C(=O)O)CC[C@]3(C)[C@H](CC[C@@H]4[C@@]5(C)CC[C@H](OS(=O)(=O)O)C(C)(C)[C@@H]5CC[C@]43C)[C@@H]12 [BETULINIC ACID SULFATE] | 9.9 | > 900 | 57.3 | 53.8 | 640 | 14.6

Continued, in another order:

IC50 [2] [µM] | Compound | HC50 [1] [µM] | Ki [3] [µM] | IC50 [4] [µM] | IC50 [5] [µM] | Ki [6] [µM]
6.8 | CC1(C)[C@@H](OS(=O)(=O)O)CC[C@]2(C)[C@H]3CC[C@@H]4[C@H]5[C@H](C6(C)CC6(Cl)Cl)CC[C@]5(COS(=O)(=O)O)CC[C@@]4(C)[C@]3(C)CC[C@@H]12 (some centres not stated) | 85 |  |  |  | 
186 | C[C@H](CCC(=O)O)[C@H]1CC[C@H]2[C@@H]3CC[C@@H]4C[C@H](OS(=O)(=O)O)CC[C@]4(C)[C@H]3C[C@H](OS(=O)(=O)O)[C@]12C [DEOXYCHOLIC ACID DISULFATE] | > 1600 |  |  |  | 
6.9 | C=C(C)[C@@H]1CC[C@]2(COS(=O)(=O)O)CC[C@]3(C)[C@H](CC[C@@H]4[C@@]5(C)CC[C@H](OS(=O)(=O)O)C(C)(C)[C@@H]5CC[C@]43C)[C@@H]12 [BETULIN DISULFATE] | 850 | 42.2 | 14.6 | 414 | 8.6
25.2 | C[C@H]1[C@H](C)CC[C@]2(C(=O)O)CC[C@]3(C)C(=CC[C@@H]4[C@@]5(C)CC[C@H](OS(=O)(=O)O)C(C)(C)[C@@H]5CC[C@]43C)[C@H]12 [URSOLIC ACID SULFATE] | > 900 |  |  |  | 
410 | C[C@]12CC[C@H]3[C@@H](CC=C4C[C@@H](OS(=O)(=O)O)CC[C@@]43C)[C@@H]1CC[C@@H]2C(=O)O | > 1600 |  |  |  | 
